Assay results from PMC3466270 (PLoS ONE, 2012).

Molecular target: RSL lectin (fucose binding lectin RSL) (Ralstonia pseudosolanacearum, UniProt Q8XXK6)
Assay: biochemical

CO[C@@H]1O[C@@H](C)[C@@H](O)[C@@H](O)[C@@H]1O [α-L-Me-fucoside]
Kd: 600 nM
